Source: patent US8921328B2, “E-selectin antagonists” (GlycoMimetics, Inc., priority 2010, dated 2014)

Target: T1, E-selectin/IgG construct (Homo sapiens, UniProt P16581)
T1 construct: fused on or other part: IgG Fc part (human, since it is captured by goat anti-human Fc antibody), fused on as a capture handle
T1 sequence (P16581 22-175 limits assumed): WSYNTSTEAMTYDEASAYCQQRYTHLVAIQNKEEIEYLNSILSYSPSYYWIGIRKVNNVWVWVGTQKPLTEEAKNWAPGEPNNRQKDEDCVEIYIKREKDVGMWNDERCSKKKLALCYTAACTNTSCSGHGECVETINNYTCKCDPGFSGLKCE
Experiment: BIAcore surface plasmon resonance (SPR)-based assay, serial dilutions of the ligand (absolute KD)
Conditions: twofold serial dilutions, 600 s association/600 s dissociation, HBS-P + 20 mm calcium + DMSO 5% v/v, read-out: KD values (absolute binding affinities)
Procedure: The biological evaluation of the E-selectin antagonists was performed by surface plasmon resonance (SPR). For this purpose, an E-selectin/IgG construct was captured onto a BIAcore chip surface bearing covalently linked goat anti-human Fc specific antibody (Biacore Life Sciences, Uppsala, Sweden).
Evaluation of E-Selectin Antagonists with Surface Plasmon Resonance (SPR)-Based Assay
Ten twofold serial dilutions of the ligand were non-randomly injected. The E-selectin antagonists were diluted in running buffer (HBS-P supplemented with […] calcium and DMSO 5% v/v). Antagonist dilutions were injected with a 600 s association time and 600 s dissociation time at a flow rate of 20 μL/min over the reference and the active flow cell. […] In addition, to prevent the presence of residual traces of compound, a blank injection was performed between each injection of ligand dilution. DMSO calibration and double referencing were applied to correct bulk effects and other systematic artifacts (subtraction of reference surface and blank injection).

Kd: 110 nM
Structure (SMILES): CC1CC(C(=O)NCCCN2CCN(CCCn3ccc4cc([N+](=O)[O-])ccc43)CC2)C[C@@H](O[C@@H]2OC(CO)[C@H](O)C(O[C@@H](CC3CCCCC3)C(=O)O)C2OC(=O)c2ccccc2)C1O[C@@H]1OC(C)[C@@H](O)C(O)C1O (stereo partly drawn) [Product 82, (1R,3R,4R,5S)-3-[2-O-Benzoyl-3-O-((1S)-1-carboxy-2-cyclohexyl-ethyl)-(β-D-galactopyranosyl)oxy]-4-[(α-L-fucopyranosyl)oxy]-5-methyl-N-(3-{1-[3-(5-nitro-1H-indol-1-yl)propyl]piperazin-1-yl}propyl)cyclohexanecarboxamide]
